This is an account of results in patent US20070281302A1 (priority 1998, published 2007).

In one assay the test system is B. cereus T spore. The assay is classed as binding, Bacillus cereus.
For assay [1], the system named is B. thuringiensis subsp. kurstaki spores. Format: binding, Bacillus thuringiensis.
For another assay, the system named is B. cereus T spores. The assay is classed as binding, Bacillus cereus.
Assay [2] deals with B. anthracis (Sterne and ΔAmes) spores. The assay is classed as binding, Bacillus anthracis.
The test system of assay [3] is spores of 15 of the other Bacillus strains. Format: binding.
For a further assay, the system named is spores of B. cereus T. The assay is classed as binding, Bacillus cereus.
Assay [4] relates to B. anthracis spores (Sterne, delta-Ames). The assay is classed as binding, Bacillus anthracis.
For assay [5], the system named is spores of B. thuringiensis subsp. kurstaki. The assay is classed as binding, Bacillus thuringiensis.
Assay [6] has as its system spores of the other Bacillus strains. The assay is classed as binding.
Another assay relates to spores of B. cerues T. Format: binding, Bacillus cereus.
The next assay relates to spores of B. subtilis. The assay is classed as binding, Bacillus subtilis.
Assay [7] concerns Bacillus spores of each experiment shown in FIG. 3. The assay is classed as binding.
The test system of the next assay is B. subtilis spores. The assay is classed as binding, Bacillus subtilis.
Assay [8] has as its system vegetative cells of the Sterne and ΔAmes strains. The assay is classed as binding, Bacillus anthracis.
Assay [9] has as its system B. anthracis spores (delta-Ames, Sterne). The assay is classed as binding, Bacillus anthracis.

Entries after “also recorded” stand apart in the source; their conditions may differ. No end group written: not given here.

With LLSPLHR [Sequence 6 (Table 5)], the “number of phage containing the sequence” value in the assay on B. cereus T spore was 6. (2).

For the substance SLLPGLPGGGC-PE (PE conjugate), the “binding of the conjugate to spores” value is “extensive binding” in assay [1], “extensive binding” with B. cereus T spores, “no binding” in assay [2] and “No peptide-conjugate binding was observed” in assay [3].

Regarding ATYPLPIRGGGC-PE (PE conjugate), the “binding of the conjugate to spores” value in assay [1] is listed as “limited binding”; in the assay with B. cereus T spores, “limited binding”; in assay [2], “extensive binding”; in [3], “did not permit detectable binding; also recorded: No peptide-conjugate binding was observed”. In addition, the “binding relative to TYPLPIRGGGC-PE” value (in [1]; in the assay with B. cereus T spores) was “only slightly enhanced” in each case. Further, the “fluorescent labeling of spores” value is recorded as “low-level but detectable binding” with spores of B. cereus T, “completely encircled by fluorescent ligand; also recorded: readily detectable” in assay [4], “low-level but detectable binding” in assay [5] and “not other strains; also recorded: essentially nonfluorescent” in assay [6]. The “enhancement of binding relative to TYPLPIRGGGC-PE” value in assay [2] is recorded as approximately 10 fold.

Turning to WSPLHKH [Sequence 8 (Table 5)], in the assay with spores of B. cerues T, the binding to spores result was “tight binding”, the “eluted phage that contained the sequence” value was “Six of the twenty” and the “enrichment of this phage” value is 300 fold.

Consider NHFL (B. subtilis), for which, in the assay on spores of B. subtilis, the “binding to the spores (ligand quality)” value is on record as “poor ligand”.

THRLPSR [Sequence 1 (Table 5)]: the “number of phage containing the sequence” value in the assay on B. cereus T spore is on record as 1. (2).

As for “HWHHHGHGGGC (also: PE conjugate) [HWHHHGHGGGC-PE]”, the “spore binding of control peptide-PE conjugates” value in assay [7] is given as “No significant binding”.

In the case of NHFLPKV [Isolate 4 (Table 1)], in the assay with B. subtilis spores, the “binding of the peptide to the spore” value is “bound tightly”, the “eluted phage examined that contained the sequence” value was “Seven of the ten” and the “enrichment of this phage” value is given as 700 fold.

Consider TYPLPIRGGGC-PE (PE conjugate), for which, in assay [1], the “binding of the peptide-PE conjugate to spores, compared with B. anthracis spores” value is “weaker (or less extensive)”. Besides, the “binding of the peptide-PE conjugate to spores, compared with B. anthracis spores” value in the assay with B. cereus T spores is “weaker (or less extensive)”. Further, the “binding to vegetative cells” value in assay [8] is reported as “did not bind”. Moreover, in assay [2], the “binding of the peptide-PE conjugate to spores” value is given as “concentration-dependent binding” and the “effect of bovine serum albumin on conjugate binding” value was “not inhibited”. In assay [3], the “binding of the peptide-PE conjugate to spores” value is “did not bind” and the “binding of the peptide-PE conjugate to spores at the highest concentration” value is “minimal binding”.

Take TYPIPIR [Isolate 5 (Table 3)]: the “number of phage containing the sequence” value in assay [9] is recorded as “three”.

NHFLP (B. subtilis): the “binding to the spores (ligand quality)” value with spores of B. subtilis was “tight binding”.

In the case of TYPIPFR [Isolate 6 (Table 3)], in assay [9], the “number of phage containing the sequence” value is listed as “three”.

Turning to “ILPRPYTGGGC (also: PE conjugate) [ILPRPYTGGGC-PE]”, in assay [7], the “spore binding of control peptide-PE conjugates” value is recorded as “No significant binding”.

Regarding TYPVPHR [Isolate 9 (Table 3)], the “number of phage containing the sequence” value in assay [9] is “once”.
